Reference: patent US7575882B2, “Compositions and methods for identifying modulators of TRPV2” (Janssen Pharmaceutica N. V., priority 2005, dated 2009)

Assays:
[1] = target: T1, rat and human TRPV2 chimera RRH (Rattus norvegicus, UniProt Q9WUD2, A714S/D654T/DEL680-680/E685A/G695P/H651S/H683Q/K690T/K717Q/L688M/N655D/R687V/R694K/S723C/T698S); assay: Calcium mobilization in HEK293 cells expressing TRPV2 chimera RRH; type: cell-based; details: expressed separately in HEK cells
T1 construct: expressed in transfected cells; host or cells: HEK293, transient, pCI-neo
T1 sequence (Q9WUD2 with tags, fused parts or gaps H651S/D654T/N655D/DEL680-680/H683Q/E685A/R687V/L688M/K690T/R694K/G695P/T698S/A714S/K717Q/S723C): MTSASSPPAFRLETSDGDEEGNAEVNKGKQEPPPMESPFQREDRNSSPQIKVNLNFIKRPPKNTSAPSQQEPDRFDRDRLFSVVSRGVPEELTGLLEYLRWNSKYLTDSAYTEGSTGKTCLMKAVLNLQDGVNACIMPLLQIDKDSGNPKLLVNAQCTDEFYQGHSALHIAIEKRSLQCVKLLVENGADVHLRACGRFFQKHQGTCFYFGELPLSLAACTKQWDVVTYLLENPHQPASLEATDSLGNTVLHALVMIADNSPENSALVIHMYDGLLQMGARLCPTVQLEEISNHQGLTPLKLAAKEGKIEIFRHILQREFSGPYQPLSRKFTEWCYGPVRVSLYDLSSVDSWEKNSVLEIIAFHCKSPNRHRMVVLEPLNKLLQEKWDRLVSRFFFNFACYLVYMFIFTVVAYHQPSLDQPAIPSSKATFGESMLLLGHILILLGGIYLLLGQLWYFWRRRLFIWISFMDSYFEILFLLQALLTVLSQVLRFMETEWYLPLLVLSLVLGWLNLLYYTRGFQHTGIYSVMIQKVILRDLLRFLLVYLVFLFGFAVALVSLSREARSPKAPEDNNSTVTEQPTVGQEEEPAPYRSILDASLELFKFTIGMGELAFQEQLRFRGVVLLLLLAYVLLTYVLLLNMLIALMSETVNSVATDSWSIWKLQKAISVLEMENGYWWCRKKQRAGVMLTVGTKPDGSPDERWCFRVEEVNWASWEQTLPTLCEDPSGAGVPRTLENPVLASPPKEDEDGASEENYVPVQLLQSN
Method: The deletion mutant constructs were then transfected into HEK293 cells using Fugene 6 reagent (Roche) as per the manufacturer's instructions. At 24 hours post-transfection, the cells were harvested and replated in fresh DMEM medium supplemented with 10% fetal bovine serum, 100 units/ml penicillin, and 100 μg/ml streptomycin. The cells were distributed onto poly-D-Lysine coated 96-or 384-well plates at a density of approximately 40,000 and 10,000 cells per well, respectively. At approximately 48 hours post-transfection, the medium was removed from the assay plate and replaced with Calcium 3 Dye Buffer (Molecular Devices) using the protocol available from the manufacturer. Calcium mobilization was triggered using Δ^9-THC or 2-APB or elevated temperature buffer and measured using either FLIPR or FLEX STATION instruments.
Based on the predicted topology and primary sequence features of TRPV2, TRPV2 are divided into 3 major domains: 1) the amino-terminal intracellular domain; 2) the transmembrane domain; and 3) the carboxyl-terminal intracellular domain. For a chimera, each domain can be of rat (R) or human (H) origin. Three rat and human TRPV2 chimera were constructed and tested herein. RRH (SEQ ID NO:15) was a chimera comprising rat 1-392 aa, rat 393-646 aa, and human 647-764 aa. RHR (SEQ ID NO:16) was a chimera comprising rat 1-392, human 391-646, and rat 647-761. […]

[2] = tested on: untransfected HEK293 cells; assay: FLIPR calcium assay in untransfected HEK293 cells (control); type: cell-based; details: 100 μM

With Delta-9-tetrahydrocannabinol [Δ^9-THC] the “response of chimera RRH to the compound” value [1] was “poorly” and the “elevation of intracellular Ca2+ in untransfected HEK293 cells” value [2] was “no significant intracellular Ca^+ elevation”.
